From patent US6573041B2, “Neuronal cell model and methods of use thereof” (priority 2000, dated 2003)

System: HSV-2 strain 333 quiescently infected ND-PC12 (QIF-PC12) cell cultures
Assay: Induction of HSV-2 from QIF-PC12 cell cultures; virus production by direct plaque assay of supernatants on Vero cells
Type: cell-based
Conditions: for cultures activating virus in response to forskolin: Vero cocultivation day 12 p.i.
Protocol: For morphologic differentiation, PC12 cells were maintained in RPMI 1640 supplemented 0.1% bovine serum albumin, fraction V (BSA) and 50 ng/ml of 2.5S mouse nerve growth nerve factor (NGF) (Becton Dickinson) (maintenance media) throughout the studies, unless indicated, beginning on the day of plating. PC12 were plated, following two rinses with RPMI 1640 containing 0.1% BSA and dissociation by passage through a 22-gauge needle, in 12-well tissue culture dishes (Bector Dickinson Labware, Franklin Lakes, N.J., USA) coated with rat tail collagen type 1 (Bector Dickinson) at 1.1×10^5 cells/well in maintenance media. Collagen was applied as recommended by the supplier. Following 4 days of differentiation in maintenance media, cultures were maintained in RPMI 1640 supplemented with 10% horse serum (heat-inactivated) and 5% FBS, and 50 ng/ml NGF for 2 days. The following day cultures received maintenance media supplemented with 100 μM acycloguanosine (ACV) when indicated, purchased from Sigma (St. Louis, Mo., USA). Morphologic differentiation was confirmed by microscopic visualization of dendritic processes. Media was changed every 2 to 3 days unless indicated.
ND-PC12 cells were infected in a volume of 0.4 ml/well in 12-well plates without agitation at the indicated multiplicity of infection (MOI) overnight at 37° C. When used, ACV was maintained in the medium from 1 day prior to infection 8 days post-infection (p.i.). After ACV withdrawal, a quiescent state (i.e., free of detectable infectious virus in culture supernatants) was maintained for at least 7 days prior to induction. At the indicated times, Vero cells were trypsinized, washed twice with RPMI and introduced into the QIF-PC12 cell cultures at a ratio of 1:1 in maintenance media.
HSV QIF-PC12 cells, that were free of detectable infectious virus, were subjected to heat stress (43° C. for 3 h in an incubator), or maintenance media supplemented with or without 50 μM forskolin (Sigma) as previously described (Danaher et al, 1999a,b). Virus production was determined using 25% volume of supernatants from infected PC12 cultures in a direct plaque assay (DPA) on monolayers of Vero cells as previously described (Miller and Smith, 1991). Cultures were subsequently replenished with fresh maintenance media.
Based on these findings, forskolin and HS induced HSV-2 reactivation from QIF-PC12 cell cultures that were cocultivated with Vero cells was analyzed in more detail. QIF-PC12 cell cultures were established with strain 333 at MOI of 10 as described in the Materials and methods using transient ACV treatment. Cultures were cocultivated with Vero cells at a ratio of 1:1 three days before induction with forskolin or HS (day 15 p.i.). Virus production was monitored from day 10 through 23 p.i. Prior to induction, HSV-2 was detected infrequently (2.8%; 1/36) in cocultivated cultures. The 35 cultures that were not shedding virus were used in induction assays. Following induction treatment (FIG. 1), virus was detected in 90 to 100% of HS and forskolin induced cocultivated cultures, and 8.3% (1/12) of mock-induced cocultivated cultures.
To assess this, QIF-PC12 cell cultures were established with HSV-2 as described above. Cultures were cocultivated with Vero cells at a ratio of 1:1 within 10 days of AC withdrawal. Induction was performed with forskolin on day 30 p.i. Cultures were monitored for virus production using culture supernatants. Over the 3 week period between ACV withdrawal and induction, 71% (17/24) of the HSV-2 infected culture maintained quiescence. HSV-2 was produced from 100% (8/8) of forskolin induced cultures and 0% (0/9) of mock induced cultures by 8 days post-induction (data not shown).
Next, it was determined whether the efficiency of HSV-2 activation from quiescence was MOI-dependent. QIF-PC12 cell cultures were established with HSV-2 strain 333 at MOIs of 3 and 30 and cocultivated with Vero cells at a ratio of 1:1 on day 12 p.i. as above. […]

C=C[C@@]1(C)CC(=O)[C@]2(O)[C@@]3(C)[C@@H](O)CCC(C)(C)[C@@H]3[C@H](O)[C@H](OC(C)=O)[C@@]2(C)O1 [forskolin]
cultures activating virus in response to forskolin (50 μM forskolin day 15 p.i., MOI of 3, established with ACV, 9/11 by day 7): 82%
cultures activating virus in response to forskolin (50 μM forskolin day 15 p.i., MOI of 30, established with ACV, 12/12 by day 6): 100%
cultures producing HSV-2 after forskolin induction (established without ACV, MOI of 3, 50 μM forskolin day 15 p.i., by day 6 post-induction, 10/11 cultures): 91%
cultures from which virus was recovered after forskolin induction (established without ACV, MOI of 3, previously mock induced non-productive cultures, forskolin induced on day 30 p.i., 4/4 cultures): 100%
forskolin induced reactivation (cultures) (established without ACV, MOI of 30, 50 μM forskolin day 15 p.i., 9/10 cultures): 90%
cultures producing HSV-2 after forskolin induction (forskolin on day 30 p.i., established with ACV, Vero cocultivation, by 8 days post-induction, 8/8 cultures): 100%
